Test results taken from ChEMBL document CHEMBL1201862, “PubChem BioAssay data set” (2004).
Activity calls are given as the source filed them.

Experiments:
Type in all cases: functional
[1] = target: T1, Sentrin-specific protease 8 (Homo sapiens, UniProt Q96LD8);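 note: luminescence read-out of SENP8 inhibition, dose-response confirmation following an ultra-high-throughput screen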
T1 sequence (Q96LD8 whole entry): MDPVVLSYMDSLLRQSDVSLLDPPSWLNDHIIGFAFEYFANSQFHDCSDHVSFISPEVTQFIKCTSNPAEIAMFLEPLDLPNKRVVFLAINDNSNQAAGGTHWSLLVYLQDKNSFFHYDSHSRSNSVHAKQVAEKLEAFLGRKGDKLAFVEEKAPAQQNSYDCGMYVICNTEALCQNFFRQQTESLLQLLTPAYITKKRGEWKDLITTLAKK

[2] = target: T2, Replicative DNA helicase DnaB (Mycobacterium tuberculosis, UniProt P9WMR3); assay: DnaB intein splicing inhibitors, dose response, biochemical, cell-free fluorescence (AID 449749)
T2 sequence (P9WMR3 whole entry): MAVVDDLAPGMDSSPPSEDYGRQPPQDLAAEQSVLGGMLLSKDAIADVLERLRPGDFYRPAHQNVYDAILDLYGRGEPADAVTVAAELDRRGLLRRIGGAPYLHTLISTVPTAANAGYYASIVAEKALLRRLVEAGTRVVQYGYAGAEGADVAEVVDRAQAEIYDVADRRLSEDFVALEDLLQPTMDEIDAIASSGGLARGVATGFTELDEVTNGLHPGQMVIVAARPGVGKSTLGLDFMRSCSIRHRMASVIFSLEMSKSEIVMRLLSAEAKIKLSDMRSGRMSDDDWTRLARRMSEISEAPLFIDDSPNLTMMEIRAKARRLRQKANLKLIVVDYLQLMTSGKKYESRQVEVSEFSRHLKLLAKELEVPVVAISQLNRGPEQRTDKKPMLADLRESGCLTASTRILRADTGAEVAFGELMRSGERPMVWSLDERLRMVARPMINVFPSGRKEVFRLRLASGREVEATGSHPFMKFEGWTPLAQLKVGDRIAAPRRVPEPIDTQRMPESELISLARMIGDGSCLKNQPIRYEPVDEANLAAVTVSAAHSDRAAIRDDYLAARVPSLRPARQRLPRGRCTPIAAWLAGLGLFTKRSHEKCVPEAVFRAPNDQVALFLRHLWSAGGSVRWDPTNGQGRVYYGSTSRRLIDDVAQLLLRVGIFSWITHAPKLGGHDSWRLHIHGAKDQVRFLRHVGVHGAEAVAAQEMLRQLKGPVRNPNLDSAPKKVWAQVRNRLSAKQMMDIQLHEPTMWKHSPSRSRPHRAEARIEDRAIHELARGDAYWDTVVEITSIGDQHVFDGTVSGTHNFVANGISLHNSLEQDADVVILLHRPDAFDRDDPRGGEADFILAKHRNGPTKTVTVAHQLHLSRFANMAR

Protein RecA = target: T3, Protein RecA (Mycobacterium tuberculosis, UniProt P9WHJ3); assay: Fluorescence Cell-Free Homogeneous Dose Retest to Identify Inhibitors of RecA-Intein Splicing Activity. [Related pubchem assays (depositor defined):AID2097, AID2223, AID489010, AID492950]
T3 sequence (P9WHJ3 whole entry): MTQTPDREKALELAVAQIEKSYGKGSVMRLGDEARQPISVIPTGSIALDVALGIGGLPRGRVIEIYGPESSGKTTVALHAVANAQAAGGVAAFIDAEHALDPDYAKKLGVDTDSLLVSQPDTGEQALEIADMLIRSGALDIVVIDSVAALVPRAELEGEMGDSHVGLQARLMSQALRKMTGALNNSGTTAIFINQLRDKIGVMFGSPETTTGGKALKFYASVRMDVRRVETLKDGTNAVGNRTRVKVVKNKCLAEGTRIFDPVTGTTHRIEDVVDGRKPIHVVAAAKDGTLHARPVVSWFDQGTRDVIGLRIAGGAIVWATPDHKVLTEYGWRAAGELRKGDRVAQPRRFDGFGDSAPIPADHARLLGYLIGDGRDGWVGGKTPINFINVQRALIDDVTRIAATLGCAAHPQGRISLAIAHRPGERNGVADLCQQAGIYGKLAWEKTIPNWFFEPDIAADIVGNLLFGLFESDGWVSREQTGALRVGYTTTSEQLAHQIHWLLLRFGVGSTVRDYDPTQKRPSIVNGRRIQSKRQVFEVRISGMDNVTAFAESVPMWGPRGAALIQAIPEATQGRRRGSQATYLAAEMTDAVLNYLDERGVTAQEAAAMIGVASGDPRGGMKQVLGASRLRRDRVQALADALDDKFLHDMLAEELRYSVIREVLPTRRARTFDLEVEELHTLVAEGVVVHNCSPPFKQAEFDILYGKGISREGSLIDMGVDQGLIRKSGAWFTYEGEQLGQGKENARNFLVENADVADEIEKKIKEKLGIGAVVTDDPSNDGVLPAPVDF

[3] = target: Leukocyte tyrosine kinase receptor (Homo sapiens, UniProt P29376); assay: Navigating the Kinome. Panel member name: LTK
Sequence of Leukocyte tyrosine kinase receptor (P29376 whole entry): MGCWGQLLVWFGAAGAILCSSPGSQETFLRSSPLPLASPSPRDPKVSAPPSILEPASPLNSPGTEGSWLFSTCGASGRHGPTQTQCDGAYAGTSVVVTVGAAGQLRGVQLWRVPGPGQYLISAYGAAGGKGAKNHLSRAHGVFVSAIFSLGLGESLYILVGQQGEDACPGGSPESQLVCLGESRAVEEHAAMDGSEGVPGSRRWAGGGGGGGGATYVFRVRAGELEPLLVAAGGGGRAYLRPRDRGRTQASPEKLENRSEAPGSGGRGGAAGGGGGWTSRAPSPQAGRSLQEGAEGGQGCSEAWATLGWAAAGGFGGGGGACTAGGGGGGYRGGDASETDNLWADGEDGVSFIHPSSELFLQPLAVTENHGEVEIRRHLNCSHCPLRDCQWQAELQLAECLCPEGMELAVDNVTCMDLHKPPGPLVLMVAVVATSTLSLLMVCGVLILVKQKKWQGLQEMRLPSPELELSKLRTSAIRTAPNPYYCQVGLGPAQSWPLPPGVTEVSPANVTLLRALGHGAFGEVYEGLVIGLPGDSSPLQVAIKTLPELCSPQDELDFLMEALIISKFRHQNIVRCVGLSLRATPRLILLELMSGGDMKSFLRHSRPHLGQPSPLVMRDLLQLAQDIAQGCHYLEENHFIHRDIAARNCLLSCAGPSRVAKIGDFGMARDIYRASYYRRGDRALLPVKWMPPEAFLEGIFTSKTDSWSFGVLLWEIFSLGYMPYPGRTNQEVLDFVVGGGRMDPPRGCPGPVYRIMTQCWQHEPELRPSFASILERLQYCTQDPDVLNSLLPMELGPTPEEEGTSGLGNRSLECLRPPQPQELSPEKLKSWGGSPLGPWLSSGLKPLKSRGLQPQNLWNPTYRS

[4] = target: T4, Serine/threonine-protein kinase D3 (Homo sapiens, UniProt O94806);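 note: determined within a kinase panel screen, with PRKCN as the panel member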
T4 sequence (O94806 whole entry): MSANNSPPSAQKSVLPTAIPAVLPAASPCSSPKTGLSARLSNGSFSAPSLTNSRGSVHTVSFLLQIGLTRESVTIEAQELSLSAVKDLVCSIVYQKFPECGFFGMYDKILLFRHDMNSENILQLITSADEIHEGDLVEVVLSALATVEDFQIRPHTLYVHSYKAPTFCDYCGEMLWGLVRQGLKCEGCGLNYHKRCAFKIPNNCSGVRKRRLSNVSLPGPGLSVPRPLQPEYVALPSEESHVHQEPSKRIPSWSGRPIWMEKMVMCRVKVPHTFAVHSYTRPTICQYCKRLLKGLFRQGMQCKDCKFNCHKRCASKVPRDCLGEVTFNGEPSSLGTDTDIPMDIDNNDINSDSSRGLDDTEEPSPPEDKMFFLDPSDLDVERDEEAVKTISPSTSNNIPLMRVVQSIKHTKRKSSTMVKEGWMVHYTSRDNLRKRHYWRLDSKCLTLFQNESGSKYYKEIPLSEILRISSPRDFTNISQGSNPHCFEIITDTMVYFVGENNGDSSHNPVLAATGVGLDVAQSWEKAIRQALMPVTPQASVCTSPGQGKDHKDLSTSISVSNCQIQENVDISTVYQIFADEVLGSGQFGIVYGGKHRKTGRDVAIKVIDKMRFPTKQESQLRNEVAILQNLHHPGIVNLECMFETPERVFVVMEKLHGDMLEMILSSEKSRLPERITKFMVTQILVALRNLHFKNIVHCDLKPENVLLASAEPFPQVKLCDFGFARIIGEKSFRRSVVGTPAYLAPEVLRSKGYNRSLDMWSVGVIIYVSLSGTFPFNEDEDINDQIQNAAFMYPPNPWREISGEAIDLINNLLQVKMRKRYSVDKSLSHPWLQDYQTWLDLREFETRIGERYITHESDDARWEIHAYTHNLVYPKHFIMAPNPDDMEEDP

SMILES	IC50 [1]	AC50 [2]	EC50 (Protein RecA)	Ki [3]	Ki [4]
CCCNC(=O)c1c(N)n(CC2CCCO2)c2nc3ccccc3nc12 (stereo not given)	3.35 µM (active)				
O=C1/C(=C\c2cccc(O)c2O)SC(=S)N1Cc1ccccc1		> 380 µM (inactive)	1.95 µM (active)		
CC(C)(C)c1cc[n+](C2=C([N-]S(=O)(=O)c3cccs3)C(=O)c3ccccc3C2=O)cc1	9.58 µM (active)	0.98 µM (active)	0.95 µM (active)		
COc1c(-c2nc3ccccc3[nH]2)c(O)cc2oc(C)cc(=O)c12				0.158 µM (active)	0.794 µM (active)
COC(=O)c1c(N)nc2ccccn12				10 µM (active)	50.1 µM (active)
CCc1ccc(S(=O)(=O)/N=C2\C=C(Nc3ccc(O)cc3)C(=O)c3ccccc32)cc1		0.416 µM (active)	0.306 µM (active)		
Cc1cc([N+](=O)[O-])cc(/C=N\NC(=O)C2COc3ccccc3O2)c1O (stereo not given)	42.1 µM (active)				
Cc1ccc(F)c(NC(=O)Nc2ccc(-c3cccc4[nH]nc(N)c34)cc2)c1 [LINIFANIB]				1 µM (active)	> 3.98 µM (inactive)
